Results reported in PubChem BioAssay (NCI).
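Values below derive from 48-hour exposures of cells grown in 96-well plates, with endpoints linearly interpolated between the two concentrations bracketing the appropriate inhibition level. The concentration for 50% growth inhibition is given as GI50. TGI marks complete inhibition of growth.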

Assays:
Assay in all cases: NCI anticancer screen, dose series, 48 h
[1] = test system: NCI-H23 lung
[2] = test system: SK-MEL-5 melanoma
[3] = test system: ACHN renal
[4] = test system: TK-10 renal
[5] = test system: NCI/ADR-RES ovarian
[6] = test system: SF-268 CNS
[7] = test system: U251 CNS
[8] = test system: RPMI-8226 leukemia
[9] = test system: SNB-19 CNS
[10] = test system: SF-295 CNS
[11] = test system: M14 melanoma
[12] = test system: SK-MEL-28 melanoma
[13] = test system: UACC-257 melanoma
[14] = test system: CCRF-CEM leukemia
[15] = test system: UO-31 renal
[16] = test system: PC-3 prostate
[17] = test system: LOX IMVI melanoma
[18] = test system: KM12 colon
[19] = test system: MOLT-4 leukemia
[20] = test system: SR leukemia
[21] = test system: HT29 colon
[22] = test system: K-562 leukemia
[23] = test system: RXF 393 renal
[24] = test system: OVCAR-3 ovarian
[25] = test system: NCI-H460 lung
[26] = test system: SN12C renal
[27] = test system: MCF7 breast
[28] = test system: SNB-75 CNS
[29] = test system: 786-0 renal
[30] = test system: A498 renal
[31] = test system: A549 NSCLC
[32] = test system: NCI-H226 lung
[33] = test system: MDA-N
[34] = test system: DU-145 prostate
[35] = test system: BT-549 breast
[36] = test system: NCI-H522 lung
[37] = test system: COLO 205 colon
[38] = test system: HS 578T breast
[39] = test system: MALME-3M melanoma
[40] = test system: HCT-15 colon
[41] = test system: MDA-MB-231 breast
[42] = test system: SK-MEL-2 melanoma
[43] = test system: MDA-MB-435
[44] = test system: OVCAR-4 ovarian
[45] = test system: T-47D breast
[46] = test system: HOP-92 NSCLC
[47] = test system: HCC-2998 colon
[48] = test system: SW-620 colon
[49] = test system: HL-60(TB) leukemia
[50] = test system: SF-539 CNS
[51] = test system: UACC-62 melanoma
[52] = test system: IGROV1 ovarian
[53] = test system: OVCAR-8 ovarian
[54] = test system: OVCAR-5 ovarian
[55] = test system: EKVX NSCLC
[56] = test system: SK-OV-3 ovarian
[57] = test system: HOP-62 NSCLC
[58] = test system: HCT-116 colon
[59] = test system: CAKI-1 renal
[60] = test system: LXFL 529 NSCLC
[61] = test system: M19-MEL melanoma
[62] = test system: DMS 114 small cell lung
[63] = test system: KM20L2 colon
[64] = test system: HOP-18 NSCLC
[65] = test system: XF 498 CNS

## O=c1c(=[n+]2ccc(=C([O-])c3ccccc3)cc2)/c(=N/S(=O)(=O)c2ccccc2)c(=O)c2ccccc12
[1]
  TGI: 12 µM
[2]
  TGI: 4.87 µM
[3]
  TGI: 25.3 µM
[4]
  TGI: 32.2 µM
[5]
  TGI: 24.3 µM
[6]
  TGI: 25.7 µM
[7]
  TGI: 16.1 µM
[8]
  TGI: 18.9 µM
[9]
  TGI: 26.7 µM
[10]
  TGI: 24.3 µM
[11]
  TGI: 23.9 µM
[12]
  TGI: 8.8 µM
[13]
  TGI: 23.9 µM
[14]
  TGI: 6.11 µM
[15]
  TGI: 23.9 µM
[16]
  TGI: 23.6 µM
[17]
  TGI: 9.45 µM
[18]
  TGI: 28.3 µM
[19]
  TGI: 14.8 µM
[20]
  TGI: 13.4 µM
[21]
  TGI: 28 µM
[22]
  TGI: 9.98 µM
[23]
  TGI: 25.2 µM
[24]
  TGI: 13.6 µM
[25]
  TGI: 36.2 µM
[26]
  TGI: 19 µM
[27]
  TGI: 25.7 µM
[28]
  TGI: 27.7 µM
[29]
  TGI: 19.5 µM
[30]
  TGI: 32 µM
[31]
  TGI: 29.8 µM
[32]
  TGI: 30.8 µM
[33]
  TGI: 3.27 µM
[34]
  TGI: 26.8 µM
[35]
  TGI: 18 µM
[36]
  TGI: 18.3 µM
[37]
  TGI: 27.2 µM
[38]
  TGI: 18.7 µM
[39]
  TGI: 16.9 µM
[40]
  TGI: 28.2 µM
[41]
  TGI: 26.1 µM
[42]
  TGI: 8.63 µM
[43]
  TGI: 3.1 µM
[44]
  TGI: 25.9 µM
[45]
  TGI: 12.9 µM
[46]
  TGI: 21.1 µM
[47]
  TGI: 23.7 µM
[48]
  TGI: 22 µM
[49]
  TGI: 4.95 µM
[50]
  TGI: 25.9 µM
[51]
  TGI: 3.73 µM
[52]
  TGI: 23 µM
[53]
  TGI: 26.7 µM
[54]
  TGI: 33.7 µM
[55]
  TGI: 27 µM
[56]
  TGI: 29.2 µM
[57]
  TGI: 22.7 µM
[58]
  TGI: 23.5 µM
[59]
  TGI: 5.19 µM

## N#C[S-].[Ce+3].c1cnc2c(c1)ccc1cccnc12.c1cnc2c(c1)ccc1cccnc12.c1cnc2c(c1)ccc1cccnc12
[1]
  TGI: 75.6 µM
[2]
  TGI: 15.2 µM
[3]
  TGI: 11.7 µM
[4]
  TGI: 29.9 µM
[7]
  TGI: 12.6 µM
[8]
  TGI: > 100 µM
[9]
  TGI: 22.5 µM
[10]
  TGI: 1.45 µM
[11]
  TGI: 3.42 µM
[12]
  TGI: 26.9 µM
[13]
  TGI: 18.9 µM
[15]
  TGI: 11.5 µM
[17]
  TGI: 10.9 µM
[18]
  TGI: 18.3 µM
[19]
  TGI: > 100 µM
[20]
  TGI: > 100 µM
[21]
  TGI: 23.9 µM
[22]
  TGI: > 100 µM
[60]
  GI50: 2.3 µM
  TGI: 24.6 µM
[24]
  TGI: 14.9 µM
[61]
  GI50: 0.555 µM
  TGI: 3.31 µM
[26]
  TGI: 13.1 µM
[62]
  GI50: 1.64 µM
  TGI: 4.52 µM
[28]
  TGI: 22.2 µM
[29]
  TGI: 11.1 µM
[30]
  TGI: 14.5 µM
[31]
  TGI: 10.1 µM
[32]
  TGI: 8.24 µM
[36]
  TGI: 21.1 µM
[37]
  TGI: 13.4 µM
[39]
  TGI: 8.84 µM
[44]
  TGI: 20.5 µM
[46]
  TGI: 22.7 µM
[47]
  TGI: 18.9 µM
[48]
  TGI: 46.8 µM
[49]
  TGI: 48.3 µM
[50]
  TGI: 16 µM
[51]
  TGI: 10.1 µM
[63]
  GI50: 1.33 µM
  TGI: 14.7 µM
[52]
  TGI: > 100 µM
[64]
  GI50: 1.2 µM
  TGI: 7.53 µM
[65]
  GI50: 3.27 µM
  TGI: 8.95 µM
[53]
  TGI: 17.5 µM
[54]
  TGI: 16.1 µM
[55]
  TGI: 17.4 µM
[56]
  TGI: 13.5 µM
[57]
  TGI: 35.7 µM
[58]
  TGI: 5.5 µM
[59]
  TGI: 14.3 µM
